Measured values taken from the NIST ThermoML archive (doi:10.1021/acs.jced.9b00474).
± gives the expanded uncertainty stated by the source.

Tests used:
[1] = xn = mol fraction of the nth substance listed; settings: 100 kPa, Liquid, x2 = 0.334; for mass density: Vibrating tube method; for viscosity: Cone and plate viscometry
[2] = Crystal 2; visual observation
[3] = Molar enthalpy of transition or fusion; settings: Crystal 2; DSC

NC(N)=O [urea] + C[N+](C)(C)CCO.[Cl-]
[1]
Settings | mass density [kg/m3] | viscosity [mPa·s]
293.15 K | 1203 ± 1 | –
293.25 K | – | 2110 ± 210
299.45 K | – | 1286 ± 120
303.15 K | 1197 ± 1 | –
305.85 K | – | 725 ± 64
312.15 K | – | 432 ± 36
313.15 K | 1192 ± 1 | –
318.35 K | – | 265 ± 21
323.15 K | 1186 ± 1 | –
324.55 K | – | 170 ± 13
330.95 K | – | 116 ± 8
333.15 K | 1180 ± 1 | –
337.15 K | – | 83 ± 6
343.15 K | 1175 ± 1 | –
343.35 K | – | 61 ± 4
349.55 K | – | 46 ± 3
353.15 K | 1170 ± 1 | –
355.85 K | – | 36 ± 3
362.05 K | – | 27 ± 2
363.15 K | 1164 ± 1 | –
368.25 K | – | 21 ± 2

C[N+](C)(C)CCO.[Cl-] [choline chloride]
Settings | Molar enthalpy of transition or fusion [kcal/mol] | Triple point temperature [K]
[2] | – | 351.62 ± 3
[3] | 1.75 ± 0.0717 | –
